According to article PMC7614720 (European journal of medicinal chemistry, 2021):

Columns and labels:
OXA-48 = OXA-48 (Klebsiella pneumoniae, UniProt Q6XEC0); experiment: 1H NMR of enzymatic hydrolysis products; format: biochemical
NDM-1 = NDM-1 (Klebsiella pneumoniae, UniProt C7C422); experiment: 1H NMR of enzymatic hydrolysis products; format: biochemical
Sequence of NDM-1 (C7C422 29-270, looked up): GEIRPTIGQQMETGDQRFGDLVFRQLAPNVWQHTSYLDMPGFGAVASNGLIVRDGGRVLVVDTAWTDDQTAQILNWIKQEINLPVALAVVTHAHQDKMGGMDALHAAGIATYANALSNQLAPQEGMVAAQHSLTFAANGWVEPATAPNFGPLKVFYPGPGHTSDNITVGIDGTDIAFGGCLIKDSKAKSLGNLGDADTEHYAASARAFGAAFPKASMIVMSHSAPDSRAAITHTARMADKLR

Sequence of OXA-48 (Q6XEC0 23-265 limits assumed): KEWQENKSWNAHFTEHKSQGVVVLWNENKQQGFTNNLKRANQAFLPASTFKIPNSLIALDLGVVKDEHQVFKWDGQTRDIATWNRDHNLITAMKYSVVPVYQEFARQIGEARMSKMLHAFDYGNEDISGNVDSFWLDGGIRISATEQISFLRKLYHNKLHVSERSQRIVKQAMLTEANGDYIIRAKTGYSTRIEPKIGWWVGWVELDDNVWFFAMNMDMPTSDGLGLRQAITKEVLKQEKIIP

Structure (SMILES): C[C@@H](O)[C@H]1C(=O)N2C(C(=O)O)=C([C@H]3CCCO3)S[C@H]12 [faropenem]
- 1H NMR of enzymatic hydrolysis products (5 μM enzyme, 55 min) (OXA-48): the class D SBLs OXA-10, OXA-23 and OXA-48 and the B1 MBLs NDM-1 and VIM-1
- 1H NMR of enzymatic hydrolysis products (5 μM enzyme, 5 min) (NDM-1): we subsequently studied the reaction of faropenem with other SBLs/MBLs
